According to ChEMBL document CHEMBL1201862, “PubChem BioAssay data set” (2004):
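All cell lines were grown in 96-well plates and treated with compound for 48 hours. The concentration for 50% growth inhibition is given as GI50.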 Calls of active or inactive are those of the source. Cut-off read from the data, not from the text of the source: active = GI50 up to about 1.1 µM and inactive = higher.

Tests used:
Assay in all cases: NCI-60 cell line screen, 48 h
RPMI-8226 = system: RPMI-8226
NCI-H226 = system: NCI-H226
LOX IMVI = system: LOX IMVI
SN12C = system: SN12C
MOLT-4 = system: MOLT-4
SK-MEL-2 = system: SK-MEL-2
UACC-62 = system: UACC-62
A498 = system: A498
UACC-257 = system: UACC-257
NCI-H460 = system: NCI-H460
SW-620 = system: SW-620
HOP-62 = system: HOP-62
OVCAR-3 = system: OVCAR-3
HCT-15 = system: HCT-15
SF-268 = system: SF-268
SK-MEL-5 = system: SK-MEL-5
EKVX = system: EKVX
HCC 2998 = system: HCC 2998

Compound	GI50 (RPMI-8226)	GI50 (NCI-H226)	GI50 (LOX IMVI)	GI50 (SN12C)	GI50 (MOLT-4)	GI50 (SK-MEL-2)	GI50 (UACC-62)	GI50 (A498)	GI50 (UACC-257)	GI50 (NCI-H460)	GI50 (SW-620)	GI50 (HOP-62)	GI50 (OVCAR-3)	GI50 (HCT-15) [µM]	GI50 (SF-268)	GI50 (SK-MEL-5)	GI50 (EKVX)	GI50 (HCC 2998)
N#CCc1ccc(/C(C#N)=C2/OC(=N)C(c3ccc(CC#N)cc3)C2=O)cc1 (centres undefined)	> 100 µM (inactive)	> 100 µM (inactive)	> 100 µM (inactive)	> 100 µM (inactive)	> 100 µM (inactive)	> 100 µM (inactive)	> 100 µM (inactive)	> 100 µM (inactive)	> 100 µM (inactive)	> 100 µM (inactive)	> 100 µM (inactive)	> 100 µM (inactive)	> 100 µM (inactive)	> 100	> 100 µM (inactive)	> 100 µM (inactive)	> 100 µM (inactive)	
CC(C)(C)c1cc(CCC(=O)Nc2ccc(Cl)cc2)nc(NC#N)n1		> 100 µM (inactive)	> 100 µM (inactive)		> 100 µM (inactive)	> 100 µM (inactive)	> 100 µM (inactive)		> 100 µM (inactive)	> 100 µM (inactive)	> 100 µM (inactive)	> 100 µM (inactive)	> 100 µM (inactive)	> 100	> 100 µM (inactive)		> 100 µM (inactive)	
Cc1cc2c(cc1C)[n+]([O-])c(C(=O)C/C(=N/NC(=O)CC#N)C(=O)Nc1ccccc1C(F)(F)F)c(C)[n+]2[O-]		26.9 µM (inactive)	53.8 µM (inactive)	76 µM (inactive)	52 µM (inactive)	39.5 µM (inactive)	34 µM (inactive)	52 µM (inactive)	44.6 µM (inactive)	34.4 µM (inactive)	50.6 µM (inactive)	> 100 µM (inactive)	37 µM (inactive)	36.6	39.9 µM (inactive)		53.1 µM (inactive)	65.5 µM (inactive)
C[N+](C)(C)CC(=O)N/N=C/c1oc(-c2cccc([N+](=O)[O-])c2)c(-c2cccc([N+](=O)[O-])c2)c1[N+](=O)[O-]	21.7 µM (inactive)			> 100 µM (inactive)	> 10 µM (inactive)	> 100 µM (inactive)	29.5 µM (inactive)	> 100 µM (inactive)	> 100 µM (inactive)	> 100 µM (inactive)	31.3 µM (inactive)	> 100 µM (inactive)			> 100 µM (inactive)	72.3 µM (inactive)	> 100 µM (inactive)	> 100 µM (inactive)
Cc1cccc2nc3cccc(C(=O)NCCN(C)C)c3nc12		1.04 µM (active)	0.36 µM (active)	0.339 µM (active)	0.26 µM (active)	1.27 µM (inactive)	0.644 µM (active)	0.266 µM (active)	0.491 µM (active)	0.301 µM (active)	0.272 µM (active)	0.247 µM (active)	1.36 µM (inactive)	0.442	0.885 µM (active)	0.54 µM (active)	0.443 µM (active)	1.04 µM (active)
NC1=NS(=O)(=O)Nc2[nH]c(-c3ccccc3)nc21	> 100 µM (inactive)	> 100 µM (inactive)	> 100 µM (inactive)	> 100 µM (inactive)	> 100 µM (inactive)	> 100 µM (inactive)	> 100 µM (inactive)		> 100 µM (inactive)	> 100 µM (inactive)	> 100 µM (inactive)		> 100 µM (inactive)	> 100	> 100 µM (inactive)	> 100 µM (inactive)	> 100 µM (inactive)	> 100 µM (inactive)
CCOC(=O)Nc1cc2nnc(-c3ccccc3)nc2c(N)n1	24.3 µM (inactive)	24 µM (inactive)	14.7 µM (inactive)	35.2 µM (inactive)		11.4 µM (inactive)	9.35 µM (inactive)		15.7 µM (inactive)	3.28 µM (inactive)	14.6 µM (inactive)	17.3 µM (inactive)	6.43 µM (inactive)	6.46	29.2 µM (inactive)	2.23 µM (inactive)	43.7 µM (inactive)	15.8 µM (inactive)
